Experimental data as given in patent US20150141375A1 (priority 2009, published 2015).
Read-outs that look alike come from different tables or passages of the source.

Assays:
[1] = Safety and pharmacokinetics of CMX001 in healthy volunteers; type: in vivo, human; conditions: blood, Human, analyte = label
Protocol: An initial study was conducted to evaluate the safety and pharmacokinetics of CMX001 in healthy volunteers. The study consisted of a single dose arm (SD) and a multiple dose arm (MD). In the single dose arm 7 cohorts of 6 subjects were treated (4 subjects received active drug and 2 placebo). Enrollment was staggered as 2 subjects (one active, one placebo) followed by 4 subjects (Groups A and B). The estimated single doses for the two highest doses treated for a […] subject were 40 mg (0.6 mg/kg cohort 6) and 70 mg (1 mg/kg cohort 7). In the multiple dose arm, cohort 6MD received 0.1 mg/kg on Day 0, 6 and 12; Cohort 7MD received 0.2 mg/kg on Day 0, 6 and 12. Levels of cidofovir, CMX001 and CMX064 (major metabolite) were measured in blood and urine of subjects during the course of the study. Gastrointestinal (GI) monitoring of the subjects included (a) monitoring for clinical signs of GI adverse events, (b) monitoring for clinical symptoms using a visual Analog Scale, (c) monitoring for appetite loss/anorexia, nausea, vomiting, diarrhea, constipation and intestinal gas/bloating, (d) laboratory tests for fecal occult blood; serum electrolytes, urine specific gravity, BUN/creatinine ratio; serum albumin, and lipids, and (e) diagnostic studies (the Wireless capsule endoscopy (PillCam®, Given Imaging)).

human PBMCs = assay: Intracellular CDV-PP in human PBMCs; type: in vitro ADME
Protocol: CMX001 increases cellular exposure to the active antiviral agent, cidofovir-diphosphate (CDV-PP). […] CDV-PP in PBMCs incubated for 48 hours with CMX001 or cidofovir.

HCMV = HCMV viral DNA accumulation in HFF cells, real time PCR, 7 days; type: cell-based; conditions: GCV 10 μM
Adenovirus = conditions: literature values; cited from earlier work
BK Virus = assay: BK virus replication in RPTECs, viral DNA by qPCR after 5 days; type: cell-based; conditions: Betapolyomavirus hominis, RPTEC
Protocol: To test the ability of CMX001 to inhibit replication of BK virus, stocks of BK virus were prepared in HFF cells and dilutions of the virus stocks were used to infect primary human renal tubular epithelial cells (RPTECs). Drug dilutions were then added to the wells containing the infected cells and the plates were incubated for 5 days. Total DNA was prepared from the plates and viral DNA was quantified by qPCR.

HCMV (AD169) = assay: HCMV real time array of viral transcripts; type: cell-based; conditions: CDV 50 μM, GCV 15 μM, CMX001 0.5 μM; ANOVA P<0.05
Mad-4 JCV = assay: JCV (Mad-4) initial infection of SVG cells (in situ DNA hybridization, qPCR); conditions: for decrease in percentage of cells containing JCV DNA: day 7
[2] = SVG cell viability / cell number (MTS, alamar blue, hematoxylin); type: cell-based, human; conditions: human, SVG cells; Ara-C 20 μg/ml; read-out: decrease of cell viability (MTS)
Protocol: (§1) Quantification of cell viability using the MTS [3-(4,5-dimethylthiazol-2-yl)-5-(3-carboxymethoxyphenyl)-2-(4-sulfophenyl)-2H-tetrazolium] assay is based on bioactivity of mitochondrial dehydrogenase in living cells, which converts colorless tetrazolium salt to a colored formazan. MTS assays were performed according to manufacturer's instructions (Promega, Madison Wis.). Briefly, culture medium was removed from cells and 50 μL of PBS was added into each well of a 96 well plate. Ten μL of MTS reagent were added to wells of cells, and to a well without cells to determine background. Mixtures were incubated at 37° C. for 2 hours and the absorbance was measured at 490 nm. Trypan blue staining was performed on identical cultures to correlate MTS values with cell viability. The final values indicated are the result from 3 replicates. The value for the non-treated control was set to 100% and all other values are represented as a percentage of the control. Alamar blue (AB) assay.
(§2) Quantification of cell viability using the alamar blue (AB) assay was performed according to the manufacturer's instructions (Invitrogen, Gaithersburg, Md.). Briefly, 10 μL of AB reagent was added to each well of a 96 well dish containing cells or without cells to determine background. Mixtures were incubated at 37° C. for 6 hours and the absorbance measured at 570 nm using 600 nm as a reference wavelength. The value for the non-treated control was set to 100% and all other values are represented as a percentage of the control.
(§3) Because cell density in cultures processed for in situ DNA hybridization could not be measured by MTS or AB assays, cell density was approximated in cell cultures processed by quantifying hematoxylin staining intensity. Coverslips containing cells were prepared for in situ DNA hybridization and co-stained with hematoxylin. Subsequently, each coverslip was scanned and the hematoxylin intensities quantified using ImageJ. To determine the total cell number per coverslip, images were acquired at 10 random positions at 100× magnification. Cells were counted throughout each image and the average cell number per slide was generated by averaging counts from the 10 images for each experimental group. Exactly 900 images at 100× magnification cover the surface of an 18 mm×18 mm coverslip.

SVG cells = assay: as above; type: cell-based, human; conditions: Ara-C 5 μg/ml
Protocol: as §1, §2, §3

HSV-1 = assay: microbe, parasite or virus in culture; type: cell-based
HSV-2 = assay: In vitro efficacy against HSV-2 strains in HFF (CPE, plaque reduction); type: cell-based
Description: In vitro screening by CPE assay in human foreskin fibroblast (HFF) cells with confirmation using plaque reduction assays in HFF.

HSV-2, strain MS = assay: Mortality of BALB/c mice infected intranasally with HSV-2, strain MS; type: in vivo
Protocol: Animals: BALB/c, female mice, 3-4 weeks of age.
Treatments were administered to mice for 7 consecutive days beginning 72 hr post viral inoculation by oral gavage using a 0.2 ml volume. CMX001 was administered once daily and ACV was given twice daily at approximately 12 hr intervals.
Mortality rates analyzed by Fisher's exact test; Mean day of death (MDD) by Mann-Whitney U rank sum.

[3] = JC polyomavirus, read-out: reduction of JCV DNA containing cells, normalized to cell viability

Nc1ccn(C[C@@H](CO)OCP(=O)(O)OCCCOCCCC(=O)O)c(=O)n1 [CMX064]
AUC ([1]; 0.05 mg/kg, CMX001 0.050 mg/kg): 39 ng·h/mL | Cmax ([1]; 0.05 mg/kg, CMX001 0.050 mg/kg): 4.63 ng/mL | AUC ([1]; 0.1 mg/kg, CMX001 0.100 mg/kg): 34 ng·h/mL | Cmax ([1]; 0.1 mg/kg, CMX001 0.100 mg/kg): 2.85 ng/mL | AUC ([1]; 0.2 mg/kg, CMX001 0.200 mg/kg): 39.7 ng·h/mL | Cmax ([1]; 0.2 mg/kg, CMX001 0.200 mg/kg): 4.55 ng/mL | AUC ([1]; 0.4 mg/kg, CMX001 0.400 mg/kg): 203 ng·h/mL | Cmax ([1]; 0.4 mg/kg, CMX001 0.400 mg/kg): 23 ng/mL | AUC ([1]; 0.6 mg/kg, CMX001 0.600 mg/kg): 187 ng·h/mL | Cmax ([1]; 0.6 mg/kg, CMX001 0.600 mg/kg): 24.9 ng/mL | AUC ([1]; CMX001 0.025 mg/kg): 11.8 ng·h/mL | Cmax ([1]; CMX001 0.025 mg/kg): 1.69 ng/mL

cidofovir diphosphate [CDV-PP]
t1/2 for CDV-PP (human PBMCs; PBMCs incubated 48 hours with CMX001 or cidofovir (FIG. 40)): 156 h | t1/2 for CDV-PP (human PBMCs; incubation with CMX001 for 1 hour (FIG. 42)): 156 h | t1/2 for CDV-PP (human PBMCs; incubation with CMX001 for 48 hours (FIG. 41)): 93.6 h

Nc1nc(O)c2ncn(COC(CO)CO)c2n1 [ganciclovir, reference compound]
fold reduction of accumulation of viral DNA (HCMV): less than 10 fold | IC50 (Adenovirus): 4.5 to 33 µM | EC50 (BK Virus; Virus Dilution 1:10): 89 µM | EC50 (BK Virus; Virus Dilution 1:50): > 100 µM | EC50 (BK Virus; Virus Dilution 1:100): 70.8 µM | levels of viral transcripts (HCMV (AD169)): Significant reductions in levels of most viral transcripts

Nc1ccn([C@@H]2O[C@H](CO)C(O)C2O)c(=O)n1 (stereo partly drawn) [Ara-C, Cytosine β-D-arabinofuranoside]
decrease in percentage of cells containing JCV DNA (Mad-4 JCV; Ara-C 5 μg per mL): 25% | decrease in percentage of cells containing JCV DNA (Mad-4 JCV; Ara-C 20 μg per mL): 83% | inhibition at 5 µg/mL (Mad-4 JCV; [3]): 27% | inhibition at 20 µg/mL (Mad-4 JCV; [3]): 78% | cytotoxicity at 20 μg/ml [2]: 21% | cytotoxicity (MTS) (SVG cells): did not cause cytotoxicity

Nc1nc2c(ncn2COCCO)c(=O)[nH]1 [Acyclovir, acyclovir]
EC50 (HSV-1; Human alphaherpesvirus 1, ACV resistant strain B-2006): > 100 µM | EC50 (HSV-1; Human alphaherpesvirus 1, ACV resistant strain DM2.1): > 100 µM | EC50 (HSV-1; Human alphaherpesvirus 1, ACV resistant strain PAAr5): 13.6 ± 2.7 µM | EC50 (HSV-1; Human alphaherpesvirus 1, F (wild type), Table 9): 1.9 ± 0.47 µM | EC50 (HSV-1; Human alphaherpesvirus 1, SC16, ACV resistant strain SC16-S1): > 100 µM | EC50 (HSV-1; Human alphaherpesvirus 1, read-out: EC50 range, panel of wild-type and ACV-resistant isolates of HSV-1 and HSV-2): ≥ 2 µM | EC50 (HSV-1; Human alphaherpesvirus 1, strain F): 0.35 ± 0.2 µM | EC50 (HSV-1; Human alphaherpesvirus 1, strain HL-3): 3.8 ± 0.4 µM | EC50 (HSV-2; Human alphaherpesvirus 2, ACV resistant strain 11572): > 100 µM | EC50 (HSV-2; Human alphaherpesvirus 2, ACV resistant strain 11680): 79 ± 10 µM | EC50 (HSV-2; Human alphaherpesvirus 2, ACV resistant strain 12247): > 100 µM | EC50 (HSV-2; Human alphaherpesvirus 2, ACV resistant strain AG-3): > 100 µM | EC50 (HSV-2; Human alphaherpesvirus 2, G (wild type), Table 9): 2.1 ± 0.99 µM | EC50 (HSV-2; Human alphaherpesvirus 2, strain G): 3.1 ± 3.5 µM | EC50 (HSV-2; Human alphaherpesvirus 2, strain MS): 2.2 ± 0.8 µM | MDD (HSV-2, strain MS; Acyclovir 3 mg/kg): 9.0 ± 1.6 | Mortality Number (HSV-2, strain MS; Acyclovir 3 mg/kg): 15/15 | Mortality Percent (HSV-2, strain MS; Acyclovir 3 mg/kg): 100% | MDD (HSV-2, strain MS; Acyclovir 10 mg/kg): 11.1 ± 2.4 | Mortality Number (HSV-2, strain MS; Acyclovir 10 mg/kg): 11/15 | Mortality Percent (HSV-2, strain MS; Acyclovir 10 mg/kg): 79% | MDD (HSV-2, strain MS; Acyclovir 30 mg/kg): 10.7 ± 2.0 | Mortality Number (HSV-2, strain MS; Acyclovir 30 mg/kg): 6/15 | Mortality Percent (HSV-2, strain MS; Acyclovir 30 mg/kg): 40% | IC50 (Adenovirus): > 100 µM
